Test results: patent publication US5276217A, “Cyclic anti-tumor promoter compounds, compositions and methods for production and use” (University of Hawaii, priority 1992, dated 1994)
Like-named read-outs stand apart in the source and are kept apart here.

Legend:
tumor promotion = details: prior art, in words, cited from earlier work
ras farnesyl transferase = biological target: T1, ras farnesyl transferase (Bos taurus, UniProt P29702+P49355); assay: inhibition of the farnesylation of ras-p21 by ras farnesyl transferase (3H-farnesylpyrophosphate incorporation); type: biochemical, bovine
T1 construct: ras farnesyl transferase obtained from bovine brain; from tissue; host or cells: bovine brain
Method: This inhibitory activity is assayed using partially purified ras farnesyl transferase obtained from bovine brain by DEA gel filtration (J. Biol. Chem., 260, 15575, 1991) purified to display a single band in gel electrophoresis. […] This mixture is incubated at 37° C. for 20 minutes. The solutes are then precipitated with trichloroacetic acid (TCA) and the precipitate is filtered on a glass filter. The amount of farnesyl incorporated into the ras-p21 is then determined by liquid scintillation.

IC50 (ras farnesyl transferase; 37° C., 20 minutes, pH 7.5, 0.67 μM 3H-Farnesylpyrophosphate, 4 μg ras-p21) [mM]	Compound	anti-tumor promoter activity (tumor promotion)	anti-tumor promoter activity (tumor promotion; listed as sarcophytol A)	inhibition of the farnesylation of ras-p21, in words (ras farnesyl transferase; conclusion from Example 7)
	CCCCC[C@H](O)CC(=O)CCc1ccc(O)c(OC)c1 [Gingerol, (S)-5-Hydroxy-1-(4-hydroxy-3-methoxyphenyl)-3-decanone]	reported to be an inhibitor of tumor promotion		
	C=C(C)C1CC=C(C)CC1 (stereo not shown) [Limonene, 1-methyl-4-(methylethenyl) cylcohexene]	has not been shown to have substantial anti-tumor promoter activity		
> 1	CC1=CC=C(C(C)C)C(O)CC(C)=CCCC(C)=CCC1 (stereo not shown) [Sarcophytol A]	have been shown to have anti-tumor promoter activity	displays antitumor promoting properties	does not appear to be an effective inhibitor
	C/C1=C\C=C(\C(C)C)[C@@H](O)[C@H](O)/C(C)=C/CC/C(C)=C/CC1 [Sarcophytol B]	have been shown to have anti-tumor promoter activity		
